Tests used:
[1] = biological target: Vascular endothelial growth factor receptor 2 (Homo sapiens, UniProt P35968); assay: Inhibition of VEGFR-2 (unknown origin) after 1 hrs by ADP-Glo luminescence assay
Angiopoietin-1 receptor = Angiopoietin-1 receptor (Homo sapiens, UniProt Q02763); assay: Inhibition of Tie-2 (unknown origin) after 1 hrs by ADP-Glo luminescence assay
EA.hy 926 = assay: Antiproliferative activity against human EAhy926 cells assessed as reduction in cell viability after 24 hrs by CCK-8 assay; details: EA.hy 926, 24 h
MCF7 = assay: Antiproliferative activity against human MCF7 cells after 48 hrs by MTT assay; details: MCF7, 48 h
A549 = assay: Antiproliferative activity against human A549 cells after 48 hrs by MTT assay; details: A549, 48 h
A-431 = assay: Antiproliferative activity against human A431 cells after 48 hrs by MTT assay; details: A-431, 48 h
HeLa = assay: Antiproliferative activity against human HeLa cells after 48 hrs by MTT assay
LoVo = assay: Antiproliferative activity against human LoVo cells after 48 hrs by MTT assay
Ephrin type-B receptor 4 = biological target: T1, Ephrin type-B receptor 4 (Homo sapiens, UniProt P54760); assay: Inhibition of EphB4 (unknown origin) after 1 hrs by ADP-Glo luminescence assay
T1 sequence (P54760 whole entry): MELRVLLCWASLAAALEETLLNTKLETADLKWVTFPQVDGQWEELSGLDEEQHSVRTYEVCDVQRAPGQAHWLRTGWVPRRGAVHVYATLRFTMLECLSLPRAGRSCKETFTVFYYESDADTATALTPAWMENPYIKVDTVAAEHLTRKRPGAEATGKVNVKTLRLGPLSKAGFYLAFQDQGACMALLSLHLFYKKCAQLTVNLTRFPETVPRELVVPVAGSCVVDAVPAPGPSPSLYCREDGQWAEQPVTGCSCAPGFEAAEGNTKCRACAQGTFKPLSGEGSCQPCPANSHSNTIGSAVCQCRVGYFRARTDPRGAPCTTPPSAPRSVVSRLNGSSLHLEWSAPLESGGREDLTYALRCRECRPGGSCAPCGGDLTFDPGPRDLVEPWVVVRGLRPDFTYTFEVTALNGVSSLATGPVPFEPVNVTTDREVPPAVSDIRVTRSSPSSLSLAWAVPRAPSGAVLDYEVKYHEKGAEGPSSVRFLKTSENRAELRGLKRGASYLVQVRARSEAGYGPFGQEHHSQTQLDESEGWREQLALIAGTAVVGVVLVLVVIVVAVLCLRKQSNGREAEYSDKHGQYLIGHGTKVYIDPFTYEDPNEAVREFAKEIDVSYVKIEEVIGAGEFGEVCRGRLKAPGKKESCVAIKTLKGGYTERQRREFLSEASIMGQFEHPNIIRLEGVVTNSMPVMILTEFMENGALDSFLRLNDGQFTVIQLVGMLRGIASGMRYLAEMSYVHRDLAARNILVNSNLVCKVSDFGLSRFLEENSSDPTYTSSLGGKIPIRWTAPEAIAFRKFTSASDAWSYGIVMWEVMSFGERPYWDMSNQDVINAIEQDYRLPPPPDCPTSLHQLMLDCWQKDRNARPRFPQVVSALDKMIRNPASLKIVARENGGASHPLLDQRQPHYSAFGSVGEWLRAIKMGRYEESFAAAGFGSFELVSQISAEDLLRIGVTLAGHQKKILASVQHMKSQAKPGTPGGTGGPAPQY

Chain of Angiopoietin-1 receptor (Q02763 whole entry): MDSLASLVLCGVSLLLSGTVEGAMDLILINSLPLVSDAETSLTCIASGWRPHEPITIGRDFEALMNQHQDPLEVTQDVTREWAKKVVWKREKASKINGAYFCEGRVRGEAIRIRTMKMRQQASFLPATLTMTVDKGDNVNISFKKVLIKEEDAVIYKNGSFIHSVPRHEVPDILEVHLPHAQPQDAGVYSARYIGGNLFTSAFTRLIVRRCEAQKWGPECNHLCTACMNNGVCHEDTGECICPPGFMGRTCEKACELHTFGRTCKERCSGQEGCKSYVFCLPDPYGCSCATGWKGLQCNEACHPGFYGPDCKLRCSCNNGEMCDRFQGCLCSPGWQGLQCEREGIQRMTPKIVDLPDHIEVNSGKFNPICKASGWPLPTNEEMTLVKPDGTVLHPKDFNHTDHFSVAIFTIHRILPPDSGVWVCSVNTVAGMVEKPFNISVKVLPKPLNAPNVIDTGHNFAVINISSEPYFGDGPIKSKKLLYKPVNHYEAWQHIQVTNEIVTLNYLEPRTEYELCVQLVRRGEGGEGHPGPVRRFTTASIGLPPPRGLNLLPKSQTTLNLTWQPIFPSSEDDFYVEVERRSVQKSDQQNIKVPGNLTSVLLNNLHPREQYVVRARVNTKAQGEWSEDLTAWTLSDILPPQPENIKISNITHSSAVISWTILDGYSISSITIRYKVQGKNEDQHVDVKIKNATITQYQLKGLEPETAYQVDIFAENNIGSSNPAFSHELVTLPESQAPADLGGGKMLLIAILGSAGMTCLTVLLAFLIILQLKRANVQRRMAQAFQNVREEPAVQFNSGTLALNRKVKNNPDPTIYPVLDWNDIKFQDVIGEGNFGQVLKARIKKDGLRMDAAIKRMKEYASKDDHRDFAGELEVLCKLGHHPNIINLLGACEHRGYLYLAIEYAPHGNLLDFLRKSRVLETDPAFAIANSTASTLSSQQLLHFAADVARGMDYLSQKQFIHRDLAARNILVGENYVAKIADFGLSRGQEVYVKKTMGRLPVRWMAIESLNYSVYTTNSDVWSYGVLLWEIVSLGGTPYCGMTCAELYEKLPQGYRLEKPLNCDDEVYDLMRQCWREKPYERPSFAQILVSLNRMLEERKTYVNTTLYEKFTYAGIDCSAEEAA
Chain of Vascular endothelial growth factor receptor 2 (P35968 whole entry): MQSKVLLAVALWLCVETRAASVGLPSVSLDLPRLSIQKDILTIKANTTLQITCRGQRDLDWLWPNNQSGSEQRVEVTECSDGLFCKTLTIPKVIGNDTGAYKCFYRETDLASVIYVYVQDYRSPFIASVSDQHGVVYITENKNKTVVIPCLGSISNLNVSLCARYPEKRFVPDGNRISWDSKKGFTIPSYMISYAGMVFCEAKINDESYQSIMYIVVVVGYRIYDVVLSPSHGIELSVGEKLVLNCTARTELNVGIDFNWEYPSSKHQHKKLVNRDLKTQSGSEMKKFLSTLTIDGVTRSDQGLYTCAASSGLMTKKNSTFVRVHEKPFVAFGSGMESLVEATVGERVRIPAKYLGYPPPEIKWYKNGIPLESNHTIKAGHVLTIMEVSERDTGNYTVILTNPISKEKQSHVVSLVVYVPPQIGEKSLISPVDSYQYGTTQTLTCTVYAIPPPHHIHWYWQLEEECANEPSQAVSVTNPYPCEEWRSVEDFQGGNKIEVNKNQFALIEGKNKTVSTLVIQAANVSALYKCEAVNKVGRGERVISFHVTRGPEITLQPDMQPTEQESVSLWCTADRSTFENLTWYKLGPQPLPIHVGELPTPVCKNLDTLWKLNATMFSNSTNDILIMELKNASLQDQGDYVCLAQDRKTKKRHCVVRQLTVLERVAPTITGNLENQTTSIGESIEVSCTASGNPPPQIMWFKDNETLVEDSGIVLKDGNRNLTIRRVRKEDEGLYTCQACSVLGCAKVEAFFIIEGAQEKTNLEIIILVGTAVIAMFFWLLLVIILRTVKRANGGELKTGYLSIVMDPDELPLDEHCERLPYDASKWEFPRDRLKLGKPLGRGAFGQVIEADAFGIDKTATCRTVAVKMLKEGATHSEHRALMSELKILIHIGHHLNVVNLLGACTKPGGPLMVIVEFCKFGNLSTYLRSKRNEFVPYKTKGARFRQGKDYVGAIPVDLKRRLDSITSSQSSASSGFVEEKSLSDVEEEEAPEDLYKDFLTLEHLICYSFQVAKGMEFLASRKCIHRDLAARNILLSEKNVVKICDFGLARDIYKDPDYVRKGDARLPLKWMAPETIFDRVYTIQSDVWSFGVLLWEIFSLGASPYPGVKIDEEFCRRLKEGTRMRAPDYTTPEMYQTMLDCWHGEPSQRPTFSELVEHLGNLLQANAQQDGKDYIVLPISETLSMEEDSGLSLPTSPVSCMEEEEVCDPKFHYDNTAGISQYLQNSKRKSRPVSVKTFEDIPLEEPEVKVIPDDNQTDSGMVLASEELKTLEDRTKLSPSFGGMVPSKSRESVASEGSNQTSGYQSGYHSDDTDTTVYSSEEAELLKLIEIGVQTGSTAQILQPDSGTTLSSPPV

With FC(F)(F)c1ccc(-c2cn(Cc3ccc(-c4cn[nH]c4)cc3)nn2)cc1 the IC50 [1] was over 1000 nM, the IC50 (Angiopoietin-1 receptor) was over 1000 nM and the IC50 (EA.hy 926) was 20900 nM.
Cn1cc(-c2ccc(Cn3cc(-c4ccccc4F)nn3)cc2)cn1 was tested, and the IC50 (Angiopoietin-1 receptor) was 2.69 nM, the IC50 (EA.hy 926) was 1900 nM and the IC50 (MCF7) was 15600 nM. It also gave an IC50 (A549) of 1200 nM, an IC50 (A-431) of 7290 nM and an IC50 (HeLa) of 27800 nM. It also gave an IC50 (LoVo) of 1320 nM.
For Nc1cccc(-c2cn(Cc3ccc(-c4cn[nH]c4)cc3)nn2)c1, the IC50 [1] was over 1000 nM, the IC50 (Angiopoietin-1 receptor) was over 1000 nM and the IC50 (Ephrin type-B receptor 4) was over 1000 nM. The IC50 (EA.hy 926) was 251000 nM.
Clc1cccc(-c2cn(Cc3ccc(-c4cncnc4)cc3)nn2)c1 showed an IC50 (Ephrin type-B receptor 4) of over 1000 nM and an IC50 (EA.hy 926) of 7830 nM.
For O=C(Nc1cccc(-c2cn(Cc3ccc(-c4cncnc4)cc3)nn2)c1)C1CC1, the IC50 (Angiopoietin-1 receptor) was over 1000 nM, the IC50 (Ephrin type-B receptor 4) was over 1000 nM and the IC50 (EA.hy 926) was 17300 nM.
Cn1cc(-c2ccc(Cn3cc(-c4ccc(C(F)(F)F)cc4)nn3)cc2)cn1 was tested, and the IC50 [1] was over 1000 nM and the IC50 (Angiopoietin-1 receptor) was 9.11 nM.
Work on FC(F)(F)c1ccc(-c2cn(Cc3ccc(-c4cncnc4)cc3)nn2)cc1 yielded an IC50 (Angiopoietin-1 receptor) of over 1000 nM, an IC50 (Ephrin type-B receptor 4) of over 1000 nM and an IC50 (EA.hy 926) of 46800 nM.
With Cc1cccc(-c2cn(Cc3ccc(-c4cncnc4)cc3)nn2)c1 the IC50 (Angiopoietin-1 receptor) was 13.7 nM and the IC50 (EA.hy 926) was 142000 nM.
In the case of Cn1cc(-c2ccc(Cn3cc(-c4cccc(NC(=O)C5CC5)c4)nn3)cc2)cn1, the IC50 (Angiopoietin-1 receptor) is reported as 0.82 nM, the IC50 (Ephrin type-B receptor 4) is reported as over 1000 nM and the IC50 (EA.hy 926) is reported as 484000 nM.
Work on Cc1cccc(-c2cn(Cc3ccc(-c4cn[nH]c4)cc3)nn2)c1 yielded an IC50 (Angiopoietin-1 receptor) of 46.4 nM, an IC50 (Ephrin type-B receptor 4) of over 1000 nM and an IC50 (EA.hy 926) of 134000 nM.
Fc1ccccc1-c1cn(Cc2ccc(-c3cncnc3)cc2)nn1 showed an IC50 (Angiopoietin-1 receptor) of 5.45 nM and an IC50 (EA.hy 926) of 22500 nM.
With Cc1ccc(-c2cn(Cc3ccc(-c4cnn(C)c4)cc3)nn2)cc1 the IC50 (Angiopoietin-1 receptor) was 77.4 nM and the IC50 (EA.hy 926) was 38100 nM.
For Cn1cc(-c2ccc(Cn3cc(-c4ccccc4)nn3)cc2)cn1, the IC50 (Angiopoietin-1 receptor) was over 1000 nM and the IC50 (EA.hy 926) was 62200 nM.
Work on Cc1cccc(-c2cn(Cc3ccc(-c4cnn(C)c4)cc3)nn2)c1 yielded an IC50 [1] of over 1000 nM, an IC50 (Angiopoietin-1 receptor) of 51.4 nM and an IC50 (EA.hy 926) of 1110 nM.
Molecule Cn1cc(-c2ccc(Cn3cc(-c4cccc(C(F)(F)F)c4)nn3)cc2)cn1 has an IC50 (Angiopoietin-1 receptor) of 1.79 nM and an IC50 (EA.hy 926) of 69000 nM.
Cc1ccc(-c2cn(Cc3ccc(-c4cncnc4)cc3)nn2)cc1 gave an IC50 (Angiopoietin-1 receptor) of 25.7 nM and an IC50 (EA.hy 926) of 1010 nM.
c1ccc(-c2cn(Cc3ccc(-c4cncnc4)cc3)nn2)cc1 was tested, and the IC50 [1] was over 1000 nM, the IC50 (Angiopoietin-1 receptor) was 51.9 nM and the IC50 (EA.hy 926) was 35500 nM.
Fc1ccccc1-c1cn(Cc2ccc(-c3cn[nH]c3)cc2)nn1 showed an IC50 (Angiopoietin-1 receptor) of 5.46 nM and an IC50 (EA.hy 926) of 20000 nM.
Cn1cc(-c2ccc(Cn3cc(-c4cccc(N)c4)nn3)cc2)cn1 gave an IC50 (Angiopoietin-1 receptor) of over 1000 nM, an IC50 (Ephrin type-B receptor 4) of over 1000 nM and an IC50 (EA.hy 926) of 22000 nM.
For Nc1cccc(-c2cn(Cc3ccc(-c4cncnc4)cc3)nn2)c1, the IC50 (Angiopoietin-1 receptor) was 210 nM, the IC50 (Ephrin type-B receptor 4) was over 1000 nM and the IC50 (EA.hy 926) was 30200 nM.
CNC(=O)c1cc(Oc2ccc(NC(=O)Nc3ccc(Cl)c(C(F)(F)F)c3)cc2)ccn1 [SORAFENIB] was tested, and the IC50 (MCF7) was 3470 nM, the IC50 (A549) was 3880 nM and the IC50 (A-431) was 3320 nM. The IC50 (HeLa) was 8740 nM and the IC50 (LoVo) was 2520 nM.

Source: ChEMBL document CHEMBL4422634, “Discovery of novel anti-angiogenesis agents. Part 9: Multiplex inhibitors suppressing compensatory activations of RTKs” (Eur J Med Chem, 2019)
